The text below walks through data of patent US12435080B2, “sGC stimulators” (Tisento Therapeutics Inc., priority 2016, dated 2025).

pEC50: −log10 of the molar value. Several values for one entry are separate records, joined by “and”; a condition that tells them apart may be missing. Identical values can stand only once.

Data set [1] has as its target T1, sGC enzyme (Homo sapiens, UniProt Q02108+Q02153).
T1 construct: incorporated into these cells detect cGMP formed by the compounds stimulating the sGC enzyme; host or cells: HEK293 cells stably expressing GloSensor 40F cGMP biosensor
T1 sequence (Q02153 1-619): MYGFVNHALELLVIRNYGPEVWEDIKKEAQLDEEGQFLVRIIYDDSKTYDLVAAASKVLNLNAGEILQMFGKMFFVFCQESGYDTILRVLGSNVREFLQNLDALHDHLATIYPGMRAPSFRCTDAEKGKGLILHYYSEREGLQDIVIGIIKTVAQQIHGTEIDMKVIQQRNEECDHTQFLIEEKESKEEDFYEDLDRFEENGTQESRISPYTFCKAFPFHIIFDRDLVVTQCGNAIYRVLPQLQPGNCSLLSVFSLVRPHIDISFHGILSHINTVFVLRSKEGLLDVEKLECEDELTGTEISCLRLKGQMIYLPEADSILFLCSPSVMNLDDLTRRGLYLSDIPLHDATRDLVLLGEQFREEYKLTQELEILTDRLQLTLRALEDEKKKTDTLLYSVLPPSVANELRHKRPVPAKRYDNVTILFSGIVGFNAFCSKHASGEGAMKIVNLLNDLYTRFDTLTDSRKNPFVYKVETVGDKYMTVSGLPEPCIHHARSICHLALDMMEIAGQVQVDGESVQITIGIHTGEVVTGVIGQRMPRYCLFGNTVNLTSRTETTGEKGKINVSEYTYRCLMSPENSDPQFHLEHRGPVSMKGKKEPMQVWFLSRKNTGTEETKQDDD
T1 sequence (Q02108 1-690): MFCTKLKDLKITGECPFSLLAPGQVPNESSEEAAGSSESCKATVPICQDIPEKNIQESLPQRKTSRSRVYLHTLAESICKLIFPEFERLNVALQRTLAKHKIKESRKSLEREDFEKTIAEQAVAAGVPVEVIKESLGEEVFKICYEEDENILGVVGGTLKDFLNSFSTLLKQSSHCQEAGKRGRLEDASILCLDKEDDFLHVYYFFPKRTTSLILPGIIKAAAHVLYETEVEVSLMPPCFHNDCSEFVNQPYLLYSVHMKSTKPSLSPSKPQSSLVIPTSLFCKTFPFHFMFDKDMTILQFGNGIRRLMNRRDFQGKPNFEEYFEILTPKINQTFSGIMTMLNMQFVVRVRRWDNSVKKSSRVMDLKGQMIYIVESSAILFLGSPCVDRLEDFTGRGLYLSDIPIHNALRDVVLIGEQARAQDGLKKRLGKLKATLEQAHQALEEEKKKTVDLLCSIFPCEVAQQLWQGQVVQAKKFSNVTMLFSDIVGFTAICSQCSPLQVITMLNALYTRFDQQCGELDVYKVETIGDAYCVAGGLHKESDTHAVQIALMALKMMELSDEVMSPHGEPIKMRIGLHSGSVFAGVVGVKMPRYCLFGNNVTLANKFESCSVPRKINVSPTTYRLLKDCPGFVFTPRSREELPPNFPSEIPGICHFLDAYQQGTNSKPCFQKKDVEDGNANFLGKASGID
The data set is described as follows: cGMP GloSensor cell-based assay, 384-well format. Conditions: HEK293 cells expressing GloSensor 40F cGMP; 10 μM DETA-NONOate; normalized to 30 μM Compound Y; compounds in Table IA; read-out: Glo-sensor AbsEC50. In short, it runs like this:
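HEK293 cells expressing GloSensor 40F cGMP luciferase biosensor, preloaded with 2 mM GloSensor substrate for 90 min at 25 °C. Endpoint luminescence read after 55 min compound incubation at room temperature.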

Data set [2] can be described thus: Rat cerebrospinal fluid (CSF) pharmacokinetic properties. Type of data set: in vivo. Conditions: compounds in Table IA; for concentration at 1 h: CSF, male Sprague-Dawley rats, PO 10 mg/kg in PEG400, 1 h post-dosing, read-out: CSF Conc. (nM @ 1 h); for Kp uu at 1 h: male, Sprague-Dawley, CSF and plasma (unbound), unbound CSF/unbound plasma ratio, rats, PO 10 mg/kg. How it is done: PK in rats was determined following oral dosing. For the oral (PO) experiments, a group of 6 male Sprague-Dawley rats with an indwelling catheter placed in the cisterna magna were used. The PO group was dosed with 3 or 10 mg/kg of a compound formulated as a solution in PEG400. PO doses were administered by oral gavage and delivered to the stomach using a syringe and gavage tube. Following oral dosage administration, the gavage tube was flushed with approximately 0.5 mL of water to ensure complete delivery of the full dose.
Plasma and CSF samples were collected as follows: samples of CSF and blood were collected at 1 hour and 2 hours post-dosing. CSF samples (0.05 mL) were collected through the intracisternal catheter. Blood samples (0.25 mL) were collected through retro-orbital sampling. These samples were kept on ice until processed for plasma. Blood samples were centrifuged at 3200 rpm for 5 minutes at approximately 5° C. within 1 hour of collection. Plasma was directly transferred to a 96-well plate tube (0.125 mL). Plug caps were placed on the tubes and the tubes frozen at approximately −70° C. and stored until analysis.
Plasma was collected and analyzed for the presence of compound.
The compound in question and the internal standard were extracted from plasma and CSF by precipitation. Samples were analyzed using liquid chromatography (LC) with tandem mass spectrometric detection (MS/MS) using electrospray ionization. The standard curve range was from 1 to 1000 ng/mL. Results of the compounds described herein in this assay are illustrated in Tables 4A (for compounds in Table IA) and 4B (for compounds in Table IB) below.
Kp,uu is defined as the concentration ratio of unbound drug in CSF to unbound drug in plasma. Unbound drug in plasma (or free plasma concentration) is calculated by multiplying the total plasma concentration by the unbound fraction as determined by plasma protein binding. The CSF concentration is then divided by the free plasma concentration to determine the Kp,uu. (See e.g., Di et al., J. Med. Chem., 56, 2-12 (2013))

Consider `Fc1ccccc1Cn1nc(-c2nc(C3CC3(F)F)n[nH]2)c2cccnc21` (stereo not drawn) [Compound I-96, 3-(3-(2,2-Difluorocyclopropyl)-1H-1,2,4-triazol-5-yl)-1-(2-fluorobenzyl)-1H-pyrazolo[3,4-b]pyridine], for which the pEC50 in data set [1] is greater than 7.00. Moreover, in data set [2], the concentration at 1 h was determined as 21.5 nM and the Kp uu at 1 h is 1.54.

In the case of `Fc1cccc(Cn2nc(-c3nc(C(F)(F)F)n[nH]3)c3cccnc32)c1F` [Compound I-48, 1-(2,3-Difluorobenzyl)-3-(3-(trifluoromethyl)-1H-1,2,4-triazol-5-yl)-1H-pyrazolo[3,4-b]pyridine], in data set [1], the pEC50 was 6.00 to 7.00 and > 7.00. In data set [2], the concentration at 1 h turned out to be 41.6 nM and the Kp uu at 1 h is 2.52.

With `FC(F)(F)c1n[nH]c(-c2nn(Cc3cncnc3)c3ncccc23)n1` [Compound I-4, 1-(Pyrimidin-5-ylmethyl)-3-(3-(trifluoromethyl)-1H-1,2,4-triazol-5-yl)-1H-pyrazolo[3,4-b]pyridine], the pEC50 in data set [1] was greater than 7.00. In data set [2], the concentration at 1 h was determined as 79.5 nM and the Kp uu at 1 h stood at 1.98.

For the compound `Cc1ncc(Cn2nc(-c3nc(C(F)(F)F)n[nH]3)c3ccccc32)cn1` [Compound I-62, 1-((2-methylpyrimidin-5-yl)methyl)-3-(3-(trifluoromethyl)-1H-1,2,4-triazol-5-yl)-1H-indazole], in data set [1], the pEC50 was greater than 7.00. In data set [2], the concentration at 1 h was determined as 83 nM and the Kp uu at 1 h was found to be 0.62.

As for `FC(F)(F)c1n[nH]c(-c2nn(Cc3ccccc3)c3ncccc23)n1` [Compound I-49, 1-Benzyl-3-(3-(trifluoromethyl)-1H-1,2,4-triazol-5-yl)-1H-pyrazolo[3,4-b]pyridine], in data set [1], the pEC50 was greater than 7.00. In data set [2], the concentration at 1 h came out at 172 nM and the Kp uu at 1 h turned out to be 1.57.

For `N#Cc1n[nH]c(-c2nn(Cc3ccccc3F)c3ncccc23)n1` [Compound I-41], the pEC50 in data set [1] was greater than 7.00. In addition, in data set [2], the concentration at 1 h came out at 26.6 nM and the Kp uu at 1 h came to 0.36.

Regarding `FC(F)(F)c1n[nH]c(-c2nn(CCC(F)(F)C(F)(F)F)c3ncccc23)n1` [Compound I-2, 1-(3,3,4,4,4-pentafluorobutyl)-3-(3-(trifluoromethyl)-1H-1,2,4-triazol-5-yl)-1H-pyrazolo[3,4-b]pyridine], in data set [1], the pEC50 was 6.00 to 7.00. In data set [2], the concentration at 1 h came out at 16.6 nM and the Kp uu at 1 h is 0.24.

`Fc1cccc(Cn2nc(-c3nc(Cl)n[nH]3)c3cccnc32)c1F` [Compound I-86, 3-(3-Chloro-1H-1,2,4-triazol-5-yl)-1-(2,3-difluorobenzyl)-1H-pyrazolo[3,4-b]pyridine]: the pEC50 in data set [1] is greater than 7.00. In addition, in data set [2], the concentration at 1 h was 31.5 nM and the Kp uu at 1 h came to 2.41.

For `Fc1ccccc1Cc1nn(-c2nc(C(F)(F)F)n[nH]2)c2cccnc12` [Compound I-31, 3-(2-Fluorobenzyl)-1-(3-(trifluoromethyl)-1H-1,2,4-triazol-5-yl)-1H-pyrazolo[4,3-b]pyridine], the pEC50 in data set [1] was 6.00 to 7.00. In data set [2], the concentration at 1 h stood at 66.6 nM and the Kp uu at 1 h worked out at 3.84.

For `Fc1ccccc1Cc1nn(-c2nc(C(F)F)n[nH]2)c2cccnc12` [Compound I-101, 1-(3-(Difluoromethyl)-1H-1,2,4-triazol-5-yl)-3-(2-fluorobenzyl)-1H-pyrazolo[4,3-b]pyridine], in data set [1], the pEC50 was greater than 7.00. In data set [2], the concentration at 1 h was 104 nM and the Kp uu at 1 h is 2.81.

On to `OCc1n[nH]c(-c2nn(Cc3ccccc3F)c3ncccc23)n1` [Compound I-64, (5-(1-(2-fluorobenzyl)-1H-pyrazolo[3,4-b]pyridin-3-yl)-1H-1,2,4-triazol-3-yl)methanol], for which, in data set [1], the pEC50 is greater than 7.00. Further, in data set [2], the concentration at 1 h was determined as 13.1 nM and the Kp uu at 1 h is 0.54.

As to `Fc1cccc(Cc2nn(-c3nc(C(F)(F)F)n[nH]3)c3cccnc23)c1F` [Compound I-105, 3-(2,3-Difluorobenzyl)-1-(3-(trifluoromethyl)-1H-1,2,4-triazol-5-yl)-1H-pyrazolo[4,3-b]pyridine], in data set [1], the pEC50 is greater than 7.00. Besides, in data set [2], the concentration at 1 h is 17.4 nM and the Kp uu at 1 h came to 2.2.
